Assay results published in publication doi:10.1101/324947v3 (biorxiv, 2020).

Tests used:
[1] = biological target: T1, recombinant IDO1 (holo-IDO1; apo-IDO1) (Homo sapiens, UniProt P14902); assay: NFK formation from D-TRP, Morrison tight binding fit; format: biochemical
[2] = biological target: T1, recombinant IDO1 (holo-IDO1; apo-IDO1); assay: intrinsic TRP fluorescence quenching, equilibrium titration; format: binding
[3] = biological target: T1, recombinant IDO1 (holo-IDO1; apo-IDO1); assay: fluorescence polarization competition against GSK1051; format: binding

T1 sequence (P14902 whole entry): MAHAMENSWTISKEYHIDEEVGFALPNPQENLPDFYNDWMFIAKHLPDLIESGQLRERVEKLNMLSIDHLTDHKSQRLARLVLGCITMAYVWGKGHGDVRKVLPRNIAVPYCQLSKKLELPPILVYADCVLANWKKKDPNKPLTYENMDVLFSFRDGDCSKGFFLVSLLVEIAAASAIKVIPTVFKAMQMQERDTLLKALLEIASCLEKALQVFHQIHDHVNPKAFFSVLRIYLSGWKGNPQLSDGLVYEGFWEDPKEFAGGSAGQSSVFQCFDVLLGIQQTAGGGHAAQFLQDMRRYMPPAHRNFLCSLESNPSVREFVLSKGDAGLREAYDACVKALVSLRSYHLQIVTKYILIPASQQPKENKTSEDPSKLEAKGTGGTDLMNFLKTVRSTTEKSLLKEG

Ki [1] [nM] | Kd [2] [nM] | IC50 [3] [nM] | SMILES
10 | 2.1 |  | CC(C)CN(CC(C)C)c1ccc([C@H](C)CC(=O)O)cc1Nc1nc(C(F)(F)F)ns1 [GSK5628]
 |  | 4.4 | C=CC1=C(C)C2=Cc3c(C=C)c(C)c4[n]3[Fe+][n]3c(c(C)c(CCC(=O)O)c3=CC3=NC(=C4)C(C)=C3CCC(=O)O)=CC1=N2 [heme]
